Measured values: US12145939B2, “Substituted [1,2,4]triazolo[4,3-a]pyrazines as ion channel modulators” (PRAXIS PRECISION MEDICINES, INC., priority 2019, dated 2024)

What follows are molecules tested against T1, human NaV1.6 (hNaV1.6) (Homo sapiens, UniProt Q9UQD0) (assay: Modulation of late sodium current (INaL) at hNaV1.6, PatchXpress electrophysiology). Settings: HEK293, HEK-293 cells expressing recombinant human NaV 1.6, late current evoked by 300 nM ATX-II, read-out: NaV 1.6 Assay Data (percent inhibition of INaL at hNaV1.6).
T1 construct: expressed in transfected cells; host or cells: HEK-293
Type: cell-based
Method: Functional characterization of exemplary compounds to modulate INaL expressed by the NaV1.6 voltage-gated sodium channel was accomplished using the PatchXpress™ high throughput electrophysiology platform (Molecular Devices, Sunnyvale, CA). HEK-293 cells expressing recombinant, human NaV1.6 (hNaV1.6) were grown in DMEM/high-glucose Dulbecco's modified, 10% FBS, 2 mM sodium pyruvate, 10 mM HEPES and 400 μg/mL G418. Cells were grown to 50%-80% confluency prior to harvesting. Trypsinized cells were washed, allowed to recover for 1 hour and then resuspended in extracellular recording solution at a concentration of 1×10^6 cells/ml. The onboard liquid handling facility of the PatchXpress was used for dispensing cells and applying test compounds. NaV late currents were evoked by the application of 300 nM ATX-II. INaL was evoked by depolarizing pulses to 0 mV for 200 ms from a non-inactivating holding potential (e.g., −120 mV) at a frequency of 0.1 Hz. INaL amplitude and stability were determined by analyzing the mean current amplitude over the final 20 ms of the test pulse. Following steady state block with exemplary compounds (e.g., as described herein), a Na+ free solution containing an impermeant cation (e.g., Choline or NDMG) was added to confirm the identity of the sodium current. Percent steady-state inhibition of INaL was calculated as: […], where INaL_compound and INaL_control represent INaL recorded in the presence or absence of compound, respectively.
Results from this assay relating to percent inhibition of INaL at hNaV1.6 (measured using a procedure similar to described above but using HEK-293 cells expressing recombinant, human NaV 1.6 (h NaV 1.6) at 1 μM are summarized in Table 1 below. In this table, “A” indicates inhibition of less than 30%; “B” indicates inhibition of between about 30% to about 70%; and “C” indicates inhibition of greater than 70%. “N/A” indicates not available.

T1 sequence (Q9UQD0 whole entry): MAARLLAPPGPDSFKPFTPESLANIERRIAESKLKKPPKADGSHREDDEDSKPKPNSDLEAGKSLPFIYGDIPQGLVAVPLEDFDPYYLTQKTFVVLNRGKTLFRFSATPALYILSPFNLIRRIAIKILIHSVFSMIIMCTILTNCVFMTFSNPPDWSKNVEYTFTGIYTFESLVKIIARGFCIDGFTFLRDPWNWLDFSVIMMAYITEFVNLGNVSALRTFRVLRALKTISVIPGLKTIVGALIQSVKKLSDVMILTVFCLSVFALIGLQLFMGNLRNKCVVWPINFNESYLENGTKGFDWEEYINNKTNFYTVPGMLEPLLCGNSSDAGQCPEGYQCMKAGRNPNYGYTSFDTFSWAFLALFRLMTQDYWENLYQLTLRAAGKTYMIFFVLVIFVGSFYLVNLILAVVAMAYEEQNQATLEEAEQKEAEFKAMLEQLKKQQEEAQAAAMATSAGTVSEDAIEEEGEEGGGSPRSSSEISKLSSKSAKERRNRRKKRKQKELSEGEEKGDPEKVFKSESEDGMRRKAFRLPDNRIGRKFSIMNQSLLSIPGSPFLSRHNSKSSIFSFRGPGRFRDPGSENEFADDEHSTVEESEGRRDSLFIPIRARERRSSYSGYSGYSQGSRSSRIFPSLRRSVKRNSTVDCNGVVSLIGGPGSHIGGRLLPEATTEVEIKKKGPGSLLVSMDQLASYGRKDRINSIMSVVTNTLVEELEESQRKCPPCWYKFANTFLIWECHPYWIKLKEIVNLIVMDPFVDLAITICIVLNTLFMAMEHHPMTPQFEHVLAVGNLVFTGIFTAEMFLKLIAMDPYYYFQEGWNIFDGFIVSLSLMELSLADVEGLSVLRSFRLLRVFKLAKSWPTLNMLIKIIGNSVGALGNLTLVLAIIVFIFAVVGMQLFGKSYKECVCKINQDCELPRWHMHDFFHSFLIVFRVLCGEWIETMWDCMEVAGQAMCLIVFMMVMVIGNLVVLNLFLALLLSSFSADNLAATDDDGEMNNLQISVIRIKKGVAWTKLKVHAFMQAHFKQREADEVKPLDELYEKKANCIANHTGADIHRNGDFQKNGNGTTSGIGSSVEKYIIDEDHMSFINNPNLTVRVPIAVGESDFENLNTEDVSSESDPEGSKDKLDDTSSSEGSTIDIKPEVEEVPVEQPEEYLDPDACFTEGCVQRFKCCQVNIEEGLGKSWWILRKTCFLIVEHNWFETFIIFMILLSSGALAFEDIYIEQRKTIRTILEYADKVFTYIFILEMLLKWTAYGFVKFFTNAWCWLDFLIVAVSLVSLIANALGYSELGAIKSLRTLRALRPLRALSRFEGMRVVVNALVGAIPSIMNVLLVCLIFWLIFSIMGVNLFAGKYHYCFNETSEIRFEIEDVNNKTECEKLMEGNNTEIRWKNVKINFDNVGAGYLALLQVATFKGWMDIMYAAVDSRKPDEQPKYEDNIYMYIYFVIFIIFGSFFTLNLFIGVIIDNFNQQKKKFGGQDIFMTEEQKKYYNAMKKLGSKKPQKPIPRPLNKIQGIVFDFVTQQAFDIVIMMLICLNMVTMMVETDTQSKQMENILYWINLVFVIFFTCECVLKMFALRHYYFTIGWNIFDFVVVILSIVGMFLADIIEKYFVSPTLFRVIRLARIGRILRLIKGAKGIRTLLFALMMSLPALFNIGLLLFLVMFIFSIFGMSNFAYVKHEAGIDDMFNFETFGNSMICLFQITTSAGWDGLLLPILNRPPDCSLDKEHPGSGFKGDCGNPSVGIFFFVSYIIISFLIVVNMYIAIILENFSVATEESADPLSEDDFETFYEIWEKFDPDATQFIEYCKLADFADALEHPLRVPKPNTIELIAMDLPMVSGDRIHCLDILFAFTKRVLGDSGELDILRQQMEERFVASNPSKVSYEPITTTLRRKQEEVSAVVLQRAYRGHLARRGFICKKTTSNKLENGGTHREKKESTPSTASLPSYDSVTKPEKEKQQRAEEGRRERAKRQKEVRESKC

| Compound | inhibition at 1 µM |
| --- | --- |
| C[C@H](Oc1ccc(-c2cn3c(C(F)F)nnc3cn2)cn1)C(F)(F)F [Compound III-16, (S)-3-(difluoromethyl)-6-(6-((1,1,1-trifluoropropan-2-yl)oxy)pyridin-3-yl)-[1,2,4]triazolo[4,3-a]pyrazine] | > 70% |
| COC(C)(C)c1nnc2cnc(-c3ccc(OC(C)(C)C(F)(F)F)nc3)cn12 [Compound II-14, 3-(1-methoxy-1-methyl-ethyl)-6-[6-(2,2,2-trifluoro-1,1-dimethyl-ethoxy)-3-pyridyl]-[1,2,4]triazolo[4,3-a]pyrazine] | 30 to 70% |
| COC(C)(C)c1nnc2cnc(-c3cnc(OC(C)(C)C(F)(F)F)c(F)c3)cn12 [Compound II-10, 6-[5-fluoro-6-(2,2,2-trifluoro-1,1-dimethyl-ethoxy)-3-pyridyl]-3-(1-methoxy-1-methyl-ethyl)-[1,2,4]triazolo[4,3-a]pyrazine] | > 70% |
| COC(F)(F)c1nnc2cnc(-c3ccc([C@@H](C)OCC(F)(F)F)cc3)cn12 (single isomer, unassigned) [Compound III-17] | < 30% |
| COC(F)(F)c1nnc2cnc(-c3ccc([C@H]4CC4(F)F)cc3)cn12 (single isomer, unassigned) [Compound III-4] | 30 to 70% |
| COC(F)(F)c1nnc2cnc(-c3ccc([C@H]4CC4(F)F)cc3C)cn12 (single isomer, unassigned) [Compound III-7] | > 70% |
| CCOC(F)(F)c1nnc2cnc(-c3ccc([C@@H](C)OCC(F)(F)F)cc3C)cn12 (single isomer, unassigned) [Compound III-9] | 30 to 70% |
| FC(F)(F)c1nnc2cnc(-c3ccc(O[C@@H](C4CC4)C(F)(F)F)nc3)cn12 [Compound III-15, (S)-6-(6-(1-cyclopropyl-2,2,2-trifluoroethoxy)pyridin-3-yl)-3-(trifluoromethyl)-[1,2,4]triazolo[4,3-a]pyrazine] | > 70% |
| CO[C@@H](C)c1nnc2cnc(-c3ccc(O[C@@H](C4CC4)C(F)(F)F)nc3)cn12 (single isomer, unassigned) [Compound I-21] | < 30% |
| CO[C@H](C)c1nnc2cnc(-c3ccc(O[C@H](C4CC4)C(F)(F)F)nc3)cn12 (single isomer, unassigned) [Compound I-24] | < 30% |
| CCO[C@H](C)c1nnc2cnc(-c3ccc(OC(C)(C)C(F)(F)F)nc3)cn12 [Compound I-19, (R)-3-(1-ethoxyethyl)-6-(6-((1,1,1-trifluoro-2-methylpropan-2-yl)oxy)pyridin-3-yl)-[1,2,4]triazolo[4,3-a]pyrazine] | 30 to 70% |
| COC1(c2nnc3cnc(-c4cnc(OCC(F)(F)F)c(F)c4)cn23)CC1 [Compound II-1, 6-(5-fluoro-6-(2,2,2-trifluoroethoxy)pyridin-3-yl)-3-(1-methoxycyclopropyl)-[1,2,4]triazolo[4,3-a]pyrazine] | < 30% |
| CCO[C@H](C)c1nnc2cnc(-c3cnc(OC4(C(F)(F)F)CCC4)c(F)c3)cn12 [Compound I-14, (R)-3-(1-ethoxyethyl)-6-(5-fluoro-6-(1-(trifluoromethyl)cyclobutoxy)pyridin-3-yl)-[1,2,4]triazolo[4,3-a]pyrazine] | 30 to 70% |
| C[C@@H](Oc1ccc(-c2cn3c(C(F)F)nnc3cn2)cn1)C(F)(F)F [Compound III-13, (R)-3-(difluoromethyl)-6-(6-((1,1,1-trifluoropropan-2-yl)oxy)pyridin-3-yl)-[1,2,4]triazolo[4,3-a]pyrazine] | > 70% |
| FC(F)(F)c1nnc2cnc(-c3ccc(O[C@H](C4CC4)C(F)(F)F)nc3)cn12 (single isomer, unassigned) [Compound III-14] | 30 to 70% |
| FC(F)(F)Oc1ccc(-c2cn3c(C(F)(F)F)nnc3cn2)c(C2CC2)c1 [Compound III-1, 6-[2-cyclopropyl-4-(trifluoromethoxy)phenyl]-3-(trifluoromethyl)-[1,2,4]triazolo[4,3-a]pyrazine] | > 70% |
| CO[C@H](C)c1nnc2cnc(-c3cnc(O[C@@H](C4CC4)C(F)(F)F)c(F)c3)cn12 (single isomer, unassigned) [Compound I-17] | < 30% |
| C[C@H](Oc1ccc(-c2cn3c(C(F)(F)Cl)nnc3cn2)cn1)C(F)(F)F [Compound II-7, (S)-3-(chlorodifluoromethyl)-6-(6-((1,1,1-trifluoropropan-2-yl)oxy)pyridin-3-yl)-[1,2,4]triazolo[4,3-a]pyrazine] | 30 to 70% |

| Compound | inhibition at 1 µM |
| --- | --- |
| CCO[C@H](C)c1nnc2cnc(-c3ccc(OC4(C(F)(F)F)CCC4)nc3)cn12 [Compound I-20, (R)-3-(1-ethoxyethyl)-6-(6-(1-(trifluoromethyl)cyclobutoxy)pyridin-3-yl)-[1,2,4]triazolo[4,3-a]pyrazine] | 30 to 70% |
| CCO[C@@H](C)c1nnc2cnc(-c3cnc(OC(C)(C)C(F)(F)F)c(F)c3)cn12 [Compound I-12, 6-[5-fluoro-6-(2,2,2-trifluoro-1,1-dimethyl-ethoxy)-3-pyridyl]-3-[(1S)-1-ethoxyethyl]-[1,2,4]triazolo[4,3-a]pyrazine] | 30 to 70% |
| COC1(c2nnc3cnc(-c4cnc(O[C@H](C)C(F)(F)F)c(F)c4)cn23)CC1 [Compound II-2, (R)-6-(5-fluoro-6-((1,1,1-trifluoropropan-2-yl)oxy)pyridin-3-yl)-3-(1-methoxycyclopropyl)-[1,2,4]triazolo[4,3-a]pyrazine] | < 30% |
| COC(F)(F)c1nnc2cnc(-c3ccc([C@@H]4CC4(F)F)cc3)cn12 (single isomer, unassigned) [Compound III-3] | > 70% |
| CO[C@H](C)c1nnc2cnc(-c3cnc(OC4(C(F)(F)F)CCC4)c(F)c3)cn12 (single isomer, unassigned) [Compound I-3] | 30 to 70% |
| COCC(F)(F)Oc1ccc(-c2cn3c(C(F)(F)F)nnc3cn2)cc1 [Compound III-12, 6-(4-(1,1-difluoro-2-methoxyethoxy)phenyl)-3-(trifluoromethyl)-[1,2,4]triazolo[4,3-a]pyrazine] | 30 to 70% |
| CO[C@H](C)c1nnc2cnc(-c3ccc(OC4(C(F)(F)F)CCC4)nc3)cn12 (single isomer, unassigned) [Compound I-6] | 30 to 70% |
| COC(C)(C)c1nnc2cnc(-c3cnc(O[C@@H](C)C(F)(F)F)c(F)c3)cn12 [Compound II-9, (S)-6-(5-fluoro-6-((1,1,1-trifluoropropan-2-yl)oxy)pyridin-3-yl)-3-(2-methoxypropan-2-yl)-[1,2,4]triazolo[4,3-a]pyrazine] | 30 to 70% |
| CO[C@@H](C)c1nnc2cnc(-c3cnc(O[C@H](C4CC4)C(F)(F)F)c(F)c3)cn12 (single isomer, unassigned) [Compound I-16] | 30 to 70% |
| CO[C@H](C)c1nnc2cnc(-c3cnc(OC(C)(C)C(F)(F)F)c(F)c3)cn12 (single isomer, unassigned) [Compound I-1] | > 70% |
| CO[C@@H](C)c1nnc2cnc(-c3cnc(OC4(C(F)(F)F)CCC4)c(F)c3)cn12 (single isomer, unassigned) [Compound I-4] | 30 to 70% |
| COC(F)(F)c1nnc2cnc(-c3ccc([C@H](C)OCC(F)(F)F)cc3)cn12 (single isomer, unassigned) [Compound III-18] | < 30% |
| COC(C)(C)c1nnc2cnc(-c3ccc(OC4(C(F)(F)F)CCC4)nc3)cn12 [Compound II-13, 3-(1-methoxy-1-methyl-ethyl)-6-[6-[1-(trifluoromethyl)cyclobutoxy]-3-pyridyl]-[1,2,4]triazolo[4,3-a]pyrazine] | 30 to 70% |
| CO[C@H](C)c1nnc2cnc(-c3ccc(OC(C)(C)C(F)(F)F)nc3)cn12 (single isomer, unassigned) [Compound I-9] | 30 to 70% |
| CCO[C@@H](C)c1nnc2cnc(-c3ccc(OC4(C(F)(F)F)CCC4)nc3)cn12 [Compound I-11, (S)-3-(1-ethoxyethyl)-6-(6-(1-(trifluoromethyl)cyclobutoxy)pyridin-3-yl)-[1,2,4]triazolo[4,3-a]pyrazine] | 30 to 70% |
| CCOC(F)(F)c1nnc2cnc(-c3ccc(COCC(F)(F)F)cc3C)cn12 [Compound III-5, 3-[ethoxy(difluoro)methyl]-6-[2-methyl-4-(2,2,2-trifluoroethoxymethyl)phenyl]-[1,2,4]triazolo[4,3-a]pyrazine] | 30 to 70% |
| COC(C)(C)c1nnc2cnc(-c3cnc(OC4(C(F)(F)F)CCC4)c(F)c3)cn12 [Compound II-12, 6-(5-fluoro-6-(1-(trifluoromethyl)cyclobutoxy)pyridin-3-yl)-3-(2-methoxypropan-2-yl)-[1,2,4]triazolo[4,3-a]pyrazine] | > 70% |
| CCOC(F)(F)c1nnc2cnc(-c3ccc([C@@H](C)OCC(F)(F)F)cc3)cn12 (single isomer, unassigned) [Compound III-19] | < 30% |
